“Also recorded” adds a separate entry of the source. Where two headings read alike, the source gives them in different places.

This note sets out measurements from US20070049585A1, “BENZAMIDE AND BENZOATE ANTI-HIV COMPOUNDS” (priority 2004, published 2007).

Data set [1] has as its system HIV-1 IIIB. Kind of data set: AV-Finder-HIV Drug Discovery Assay: inhibition of HIV-1 IIIB replication in HeLa indicator cells (GFP fluorescence). Format: cell-based. The text has this:
In order to study the viral replication in vitro, the GenPhar (Mt. Pleasant, S.C.) AV-Finder™-HIV Drug Discovery Assay was used, that consists of two components: (1) a cloned, continuous-passage HeLa cell line containing an HIV-1 tat-activated molecular switch and a Green Fluorescent Protein reporter gene and (2) a recombinant adenovirus (rAd) vector containing the genes for all three of the HIV-1 receptor/co-receptors (CD4, CXCR4, and CCR5) to transduce into HeLa cells and convert them into highly susceptible HIV-1 indicator cells for use in the assay. The indicator cells over-express the HIV-1 receptor genes and are readily infected with any HIV-1 strain or isolate. […] Infected cells fluoresce brightly so that the inhibition of virus replication by potential antiviral drugs can be readily detected and quantified using standard laboratory plate reader technology.
(§1) Detector plates are set up at day 1 by adding HeLa cells (3000/well) to the adenovirus AD-3R in DMEM containing CCS in 96-well plates and to incubate at 37° C. under 95% humidity and 5% CO2 for 2 days. […] At day 4, the medium was replaced by fresh medium containing the corresponding concentration of the compounds of interest. The infectivity was assessed by measuring the fluorescence on each well at day 7 ([…]). […] At day 5, the medium was replaced by fresh medium containing the corresponding concentration of compounds of interest and the infectivity was assessed by measuring the fluorescence on each well at day 8. Results are expressed as percentage of inhibition of the viral replication.
Procaine HCl was used either alone dissolved in water (SP01) or in an Anticort-like formulation (SP01A) containing zinc sulfate heptahydrate and ascorbic acid at the ratio of about 27-107/1/1.3-2.0 (for example 200 mg procaine HCl with 7.5 mg of zinc sulfate heptahydrate and 12.5 mg of ascorbic acid; Xu, J. et al. J Pharmacol. Exper. Ther. 2003 307:1148-1157) (Samaritan Pharmaceuticals).

Data set [2] concerns HIV MDR 769 strain. Put plainly: Inhibition of multi-drug resistant HIV MDR 769 strain replication in HeLa cells, without pre-medication. The class given is cell-based.
Text: In order to study the viral replication in vitro, the GenPhar (Mt. Pleasant, S.C.) AV-Finder™-HIV Drug Discovery Assay was used, that consists of two components: (1) a cloned, continuous-passage HeLa cell line containing an HIV-1 tat-activated molecular switch and a Green Fluorescent Protein reporter gene and (2) a recombinant adenovirus (rAd) vector containing the genes for all three of the HIV-1 receptor/co-receptors (CD4, CXCR4, and CCR5) to transduce into HeLa cells and convert them into highly susceptible HIV-1 indicator cells for use in the assay. The indicator cells over-express the HIV-1 receptor genes and are readily infected with any HIV-1 strain or isolate. All HIV-1 strains tested thus far, regardless of co-receptor preference, and all subtypes or clades of HIV-1 will infect these indicator cells. Infected cells fluoresce brightly so that the inhibition of virus replication by potential antiviral drugs can be readily detected and quantified using standard laboratory plate reader technology.
as §1

Data set [3] concerns HeLa cells. Put plainly: MTT cytotoxicity assay (mitochondrial integrity). Format: cell-based, human. How it is done: Following the above described cell treatment protocol, the levels of cellular 3-(4,5-dimethylthiazol-2-yl)-2,5-diphenyl tetrazolium bromide (MTT) reduction, a measure of mitochondrial integrity, were determined in order to examine whether the compounds tested were cytotoxic.

Turning to `Nc1ccn([C@@H]2CS[C@H](CO)O2)c(=O)n1` [3TC], the “inhibition of viral replication reached (maximal)” value in data set [1] (no pre-medication, dose-dependent, maximal concentrations) came out at 90%.
The IC50 is the concentration at which inhibition is half-maximal. Turning to `Cc1cn([C@H]2C[C@H](N=[N+]=[N-])[C@@H](CO)O2)c(=O)[nH]c1=O` [AZT], the “effect on HIV MDR 769 strain replication” value in data set [2] was “ineffective; also recorded: not effective”. For the same molecule, in data set [1] (24 hours pre-medication, 30 pM), the “inhibition of the replication at the peak concentration” value is listed as less than 30%. Besides, the results for the IC50 in data set [1] (48 hours pretreatment) and in data set [3] were 30 nM and 161 µM, respectively.
As to `CCN(CC)CCOC(=O)c1ccc(N)cc1` [SP01, 4-aminobenzoic acid 2-(diethylamino)ethyl ester], the “effect on HIV MDR 769 strain replication” value in data set [2] is “effectively blocked”; in data set [2] (concentrations higher than 1 nM) it was “not effective”. The “inhibition of HIV MDR 769 viral replication” value in data set [2] (concentrations up to 1 nM) was 75%. Besides, the “inhibition of HIV replication” value in data set [1] (48 hours pretreatment, all concentrations tested) is listed as 75%. For the same molecule, the “efficacy in reducing HIV-1 IIIB replication compared with AZT, ddI or 3TC” value in data set [1] (human cells) is reported as “efficacy higher than AZT, ddI or 3TC”. Moreover, the “efficacy of inhibition of HIV-1 IIIB viral replication compared with 3TC” value in data set [1] (no pre-medication, concentrations up to 0.1 μM) was “higher efficacy than the classical antiviral agent 3TC”. For the same molecule, the “cell toxicity by MTT cytotoxicity assay” value in data set [3] (all concentrations tested, up to 100 μM) is recorded as “devoid of cell toxicity”.
In the case of `CCN(CC)CCNC(=O)c1ccc(N)cc1` [SP100, procainamide], the “effect on HIV MDR 769 strain replication” value in data set [2] was “effectively blocked”.
On to `O=c1[nH]cnc2c1ncn2[C@H]1CC[C@@H](CO)O1` [ddI], for which the “inhibition of viral replication (strongest inhibition)” value in data set [1] (no pre-medication, 0.01 μM) is 26.37±26.11%. In data set [3], this molecule gave an IC50 of 89 µM.
